Measured values: patent US10150748B2, “Salt or abexinostat, associated crystalline form, a process for their preparation and pharmaceutical compositions containing them” (Pharmacyclics LLC, priority 2013, dated 2018)

Assay: Hygroscopicity by dynamic vapor sorption (DVS)
Type: physicochemical
Settings: relative humidities from 0% to 90% at 25° C.
Description: Hygroscopicity of form I of abexinostat tosylate was assessed using dynamic vapor sorption (DVS) technique. 5 to 10 mg of the drug substance test sample were accurately weighed into a DVS sample pan working at 25° C. under controlled humidity. The mass variation was recorded whilst drying under 0 percent RH (relative humidity) and during two subsequent cycles of increasing and decreasing linear variations of relative humidity in the range 0-90 percent RH at a rate of 10 percent per hour. The relative humidity was maintained constant when it reached either 0 or 90 percent RH until the mass variation was less than 0.002 percent, per minute within a limit of time of 15 h.

CN(C)Cc1c(C(=O)NCCOc2ccc(C(=O)NO)cc2)oc2ccccc12.Cc1ccc(S(=O)(=O)O)cc1 [form I of abexinostat tosylate, N-hydroxy-4-{2-[3-(N,N-dimethylaminomethyl)benzofuran-2-ylcarbonylamino]ethoxy}benzamide tosylate]
increase in weight detected by DVS analysis: lower than 0.5%
